Data published in patent US20110065715A1, “Nogo Receptor Binding Small Molecules to Promote Axonal Growth” (Yale University, priority 2007, published 2011).
“Also recorded” adds a separate entry of the source. Like-named read-outs stand apart in the source and are kept apart here.

How the values were obtained:
[1] = test system: Nogo receptor:Nogo ligand (Nogo 66) interaction; experiment: DELFIA assay of Fc-NgR:Ng66 interaction; format: binding
Protocol: ELISA and DELFIA assays were then performed to evaluate the ability of the small molecules that were identified as “hits” in the AlphaScreens to inhibit the interaction of NgR and Nogo ligand. In the DELFIA Assay, 96 well streptavidin coated plates were blocked overnight with PBS and 10 mg/ml bovine serum albumin (BSA) (200 μl). The wells were then coated for 1.5 hours with sonicated HBH (Hanks Balanced Salt Solution/0.1 M HEPES/1 mg/ml BSA) containing Nogo 66 (B66) (0.5 μl of 10 mM/10 ml HBH) (50 μl) and then washed 4 times with 200 μl of HBH. The solution containing the inhibitor compound (50 μl in HBH) was added along with 1% FcNgR solution in HBH (50 μl), and the solution was incubated for 2 hours. The wells were washed 5 times with HBH. Alkaline phosphatase (AP) conjugated mouse anti-rat antibody (1:2500) was added and the wells were then washed 5 times with DELFIA wash buffer. The Europium (Eu) anti-mouse antibody was then added in Perlin Elmer Assay, buffer (100 μg/ml) (150 μl) and the wells were again washed 5 times with DELFIA wash buffer. The enhancer solution was added (100 μl) and the plate was read with the Perkin Elmer Victor 5 instrument 15 minutes later. (FIG. 10B) The results from the DELFIA assay indicate that compounds HTS08871, KM08071, and 503749, as well as the positive control, NEP33, inhibit the Nogo receptor:Nogo ligand (Nogo 66) interaction. (FIGS. 10D and 11A-C).

[2] = test system: embryonic day 13 or 14 chick DRG neurons; experiment: Neurite outgrowth assay, E13/E14 chick DRG neurons; format: cell-based, chicken; settings: 20 μM
Protocol: To test the ability of the “hit” compounds to promote neurite outgrowth, a neurite outgrowth assay was performed using each of these compounds. Dorsal root ganglia (DRG) were removed from chicken embryos at embryonic day 13 or 14, dissociated by trituration after 30 min incubation in 0.5% collagenase, and plated on laminin-coated 96-well tissue culture plates in DMEM with 10% fetal bovine serum containing 20 μM of the test compound. After two to four hours of incubation, the cells were fixed in 4% formaldehyde in phosphate buffered saline (PBS), washed in PBS, and blocked for 1 hour in PBS with 0.1% triton X-100 and 10% goat serum. The cells were incubated in rabbit anti-beta-3-tubulin (1:500) in PBS overnight and then washed 3 times with PBS. The cells were then incubated in Alexa-fluor 488 goat anti-rabbit IgG (1:500) for 6 hrs, washed with PBS, and imaged at 10× with an ImagExpress automated microscope (Molecular Devices, Inc.). Neurite outgrowth was measured with AcuityExpress software (Molecular Devices, Inc.).

[3] = test system: postnatal day 15 (P15) wild type mouse DRG neurons; experiment: Neurite outgrowth, P15 wild type mouse DRG neurons; format: cell-based; settings: 24 hours
Protocol: (§1) However, the inhibition of neurite outgrowth by the compound S is believed to be independent of its interaction with the Nogo receptor-Nogo ligand complex. Dorsal root ganglia (DRG) were removed from wild type or NgR1 knockout mouse pups at postnatal day 15, dissociated by trituration after 30 min incubation in 0.5% collagenase, plated on laminin-coated 96-well tissue culture plates in DMEM with 10% fetal bovine serum and B27. After 24 hours, cells were fixed in 4% formaldehyde in phosphate buffered saline (PBS), washed in PBS, and blocked for 1 hour in PBS with 0.1% triton X-100 and 10% goat serum. The cells were then incubated in rabbit anti-beta-3-tubulin (1:500) in PBS overnight. After washing 3 times, the cells were incubated in Alexa-fluor 488 goat anti-rabbit IgG (1:500) for 6 hrs, washed with PBS, and imaged at 10× with an ImagExpress automated microscope (Molecular Devices, Inc.). Neurite outgrowth was measured with AcuityExpress software (Molecular Devices, Inc.).

[4] = test system: postnatal day 15 (P15) NgR1 knockout mouse DRG neurons; experiment: Neurite outgrowth, P15 NgR1 knockout mouse DRG neurons; format: cell-based; settings: 24 hours
Protocol: as §1

## N#Cc1ccc(CN2C(=O)CSC2=S)cc1 [S, 4-[(4-oxo-2-thioxo-1,3-thiazolan-3-yl)methyl]benzonitrile]
[1]
  inhibition of Nogo receptor:Nogo 66 interaction signal, DELFIA: dose dependent signal inhibition
[1]; listed as 503749
  inhibition of Nogo receptor:Nogo 66 interaction signal, DELFIA: inhibit
[2]; E13 or E14 chick DRG, two to four hours
  neurite outgrowth compared to the DMSO control: inhibited neurite outgrowth
[2]; E14
  basal neurite outgrowth, E14 chick DRG neurons: no basal neurite outgrowth
[3]
  neurite outgrowth, wild type mice: inhibits neurite outgrowth; also recorded: inhibitory effect
[4]
  neurite outgrowth, NgR1 knockout mice: inhibits neurite outgrowth; also recorded: inhibitory effect
